Test results taken from patent US20110281814A1, “METHODS AND COMPOSITIONS FOR TREATING BREAST CANCER” (Genzyme Corporation, priority 2009, published 2011).
Where two headings read alike, the source gives them in different places.

Assays:
MDA-MB-231 tumors [1] = details: for potentiation of the effect of doxorubicin on tumor growth: three weeks from day 28, vs doxorubicin alone, FIG. 5
Method: Four groups of 6- to 8-week-old SCID mice (6 animals each) were injected subcutaneously with 1×10^6 MDA-MB-231 cells. At the start of dosing (about 28 days post-injection), the tumor volume was approximately 100 mm^3. Beginning approximately 28 days after the injection, Groups 2-4 were administered intraperitoneal injections of doxorubicin once a week (Monday) for three weeks at 2 mg/kg body weight.
The size of the tumors was measured approximately every six days, beginning on day 21 post-injection. Animals were euthanized when the tumor volume reached approximately 1000 mm^3. The time course of the average tumor volume is plotted for each experimental group in FIG. 5.

established 4T1 tumors = system: established 4T1 tumors
Description: The 4T1 cell line (available from the […], Manassas, Va.) was derived from a spontaneously arising BALB/c mammary tumor and is commonly used as a syngeneic mouse model of metastatic breast cancer. When introduced orthotopically, the 4T1 line grows rapidly at the primary site and forms metastases in lungs, liver, bone and brain over a period of 3-6 weeks. When introduced intravenously or arterially, metastases are apparent in the same organs after 1-2 weeks. The rapid and efficient metastasis to organs affected in human breast cancer makes the 4T1 model an excellent mouse model for the study of metastatic progression of breast cancer in humans.
Three groups of 6- to 8-week-old SCID mice (6 animals each) were injected subcutaneously with 2×10^5 4T1 cells. At the start of dosing (about 14 days post-injection), the tumor volume was approximately 100 mm^3.
The size of the tumors was measured approximately every four days, beginning on day 10 post-injection. Animals were euthanized when the tumor volume reached approximately 1000 mm^3. […] The time course of the average tumor volume is plotted for each experimental group in FIG. 4A.

MDA-MB-231 tumors [2] = system: MDA-MB-231 tumors
Method: Three groups of 6- to 8-week-old SCID mice (6 animals each) were injected subcutaneously with 2×10^6 MDA-MB-231 cells. At the start of dosing (about 14 days post-injection), the tumor volume was approximately 100 mm^3. Beginning approximately 14 days after the injection, Groups 2 and 3 were administered intraperitoneal injections of doxorubicin once a week (Monday) for the duration of the study at 1 mg/kg body weight.
The size of the tumors was measured approximately every three days, beginning on day 21 post-injection. Animals were euthanized when the tumor volume reached approximately 1000 mm^3. The time course of the average tumor volume is plotted for each experimental group in FIG. 6A.

[3] = disclosed in PCT Pub. No. WO 00/045814; cited from earlier work
[4] = system: SDF-1α/CXCL12-mediated transactivation of HER2/neu; details: MDA-MB-361 breast cancer cells, in vitro; Cabioglu et al. 2005; cited from earlier work
murine 4T1 cells = details: Smith et al. 2004, cited from earlier work
[5] = system: established MDA-MB-231 tumors; details: for rate of tumor growth: FIG. 3A; for mean survival (Kaplan-Meier): FIG. 3B
Method: Four groups of 6- to 8-week-old SCID mice (8 animals each) were injected subcutaneously with 1×10^6 MDA-MB-231 cells. At the start of dosing (about 21 days post-injection), the tumor volume was approximately 100 mm^3.
The size of the tumors was measured approximately every five days, beginning on day 21 post-injection. Animals were euthanized when the tumor volume reached approximately 1000 mm^3. The time course of the average tumor volume is plotted for each experimental group in FIG. 3A.

MDA-MB-231 cells = details: AMD3465 5 or 10 mg/kg i.p. MWF from 7 days post-injection; absence of MSC cells; FIG. 2B
Method: (§1) Six groups of 6- to 8-week-old SCID mice (6 animals each) were injected subcutaneously with 1×10^6 MDA-MB-231 cells. Groups 4-6 were further injected with 1×10^6 MSC cells admixed with the MDA-MB-231 cells.
(§2) The size of the tumors was measured approximately every five days, beginning on day 15 post-injection. Animals were euthanized when the tumor volume reached approximately 1000 mm^3. The time course of the average tumor volume is plotted for each experimental group in FIGS. 2A and 2B.

[6] = system: MDA-MB-231 cells admixed with MSC cells; details: presence of MSC cells, FIG. 2A
Method: as §1, §2

[7] = system: MDA-MB-231 human breast cancer cells admixed with human mesenchymal stem (MSC) cells; assay: Efficacy of AMD3465 in MDA-MB-231+MSC breast cancer model (Example 1); type: in vivo, SCID mice; details: vs PBS control, FIG. 1
Method: The MSC cells provide stromal support to the MDA-MB-231 cells and enhance tumor growth and metastasis via SDF-1α/CXCL12 and RANTES pathways.
Group 2 was given intraperitoneal injections of anti-human SDF-1α/CXCL12 monoclonal antibody three times a week (Monday, Wednesday and Friday) for six weeks at 100 μg per animal.

breast cancer = details: mouse models of breast cancer; literature; cited from earlier work
[8] = AMD3100 […] + doxorubicin 2 mg/kg
[9] = AMD3100 1.25 mg/kg s.c. MWF for two weeks, FIG. 4A
[10] = AMD3100 […] + doxorubicin 1 mg/kg

In the case of `c1cc(CN2CCCNCCNCCCNCC2)ccc1CN1CCCNCCNCCCNCC1` [AMD3100], the “potentiation of the effect of doxorubicin on tumor growth” value (“potentiation” below) (MDA-MB-231 tumors [1]; AMD3100 1.25 mg/kg s.c. MWF + doxorubicin 2 mg/kg i.p. weekly) is reported as “not at 1.25 mg/kg”, the “leveling off of tumor growth” value (MDA-MB-231 tumors [1]; [8]) is reported as “leveled off by day 92 post-injection” and the “onset of tumor growth” value (MDA-MB-231 tumors [1]; [8]) is reported as “delayed by several weeks”. The “potentiation” value (MDA-MB-231 tumors [1]; AMD3100 […] s.c. MWF + doxorubicin 2 mg/kg i.p. weekly) was “potentiated the effect of 2 mg/kg doxorubicin on the tumor growth”, the “leveling off of tumor growth” value (established 4T1 tumors; [9]) was “largely leveled off by day 26 post-injection” and the “onset of tumor growth” value (established 4T1 tumors; [9]) was “delayed by approximately one week”. For the same compound, the “rate of tumor growth” value (established 4T1 tumors; [9]) was “significantly decreased the rate of tumor growth”, the “mean survival (Kaplan-Meier)” value (established 4T1 tumors; AMD3100 1.25 mg/kg, FIG. 4B) was “increased the mean survival” and the “leveling off of tumor growth” value (MDA-MB-231 tumors [2]; [10]) was “leveled off by day 50 post-injection”. For the same compound, the “onset of tumor growth” value (MDA-MB-231 tumors [2]; [10]) was “delayed by about two weeks”, the “rate of tumor growth compared to doxorubicin alone” value (MDA-MB-231 tumors [2]; [10]) was “significantly (p=0.04) decreased” and the “mean survival (Kaplan-Meier) compared to doxorubicin alone” value (MDA-MB-231 tumors [2]; AMD3100 […] + doxorubicin 1 mg/kg, FIG. 6B) was “significantly (p=0.07) increased the mean survival”. The “potentiation” value (MDA-MB-231 tumors [2]; AMD3100 […] s.c. MWF + doxorubicin 1 mg/kg i.p. weekly, duration of study from day 14, FIG. 6A) was “significantly potentiated the effect of 1 mg/kg doxorubicin on the tumor growth”, the “white blood cell count” value [3] was “increasing the white blood cell count” and the “SDF-1α/CXCL12-mediated transactivation of HER2/neu” value [4] was “inhibit”. The “growth onset of 4T1 cells in the lung” value (murine 4T1 cells) was “significantly delayed the growth onset” and the overall survival (murine 4T1 cells; mice with experimental lung metastases) was “did not appear to improve overall survival”.

In the case of `c1ccc(CNCc2ccc(CN3CCCNCCNCCCNCC3)cc2)nc1` [AMD3465], the “rate of tumor growth” value ([5]; AMD3465 5 mg/kg i.p. MWF from about 21 days post-injection) is reported as “not at 5 or 10 mg/kg”, the “mean survival (Kaplan-Meier)” value ([5]; AMD3465 5 mg/kg) is reported as “not at 5 or 10 mg/kg” and the “rate of tumor growth” value ([5]; AMD3465 10 mg/kg i.p. MWF from about 21 days post-injection) is reported as “not at 5 or 10 mg/kg”. The “mean survival (Kaplan-Meier)” value ([5]; AMD3465 10 mg/kg) was “not at 5 or 10 mg/kg”, the “rate of tumor growth” value (MDA-MB-231 cells) was “no statistically significant effect” and the “rate of tumor growth” value ([6]; AMD3465 5 mg/kg i.p. MWF from 7 days post-injection) was “significantly (p=0.024) decreased the rate of tumor growth”. For the same compound, the “rate of tumor growth” value ([6]; AMD3465 10 mg/kg i.p. MWF from 7 days post-injection) was “not at 10 mg/kg”, the “rate of tumor growth” value ([7]; AMD3465 5 mg/kg i.p. MWF for six weeks from 48 hours post-injection) was “significantly (p=0.07) decreased the rate of tumor growth” and the “rate of tumor growth” value ([7]; AMD3465 10 mg/kg i.p. MWF for six weeks from 48 hours post-injection) was “not at 10 mg/kg”.

For TN14003, the metastasis (breast cancer) is given as “reduce metastasis” and the primary tumor growth (breast cancer) is given as “reduce primary tumor growth”.
